SMILES strings stand for the structures. pKi: −log10 of the molar value.

Experiment [1] is described as follows: Un-competitive inhibition of metallo-beta-lactamase IMP-1 expressed in Escherichia coli BL21(DE3) using benzylpenicillin as substrate by 96-well plate assay.
Experiment [2] in a line: Competitive inhibition of metallo-beta-lactamase IMP-1 expressed in Escherichia coli BL21(DE3) using benzylpenicillin as substrate by 96-well plate assay.
Experiment [3] in a line: Competitive inhibition of metallo-beta-lactamase IMP-1 expressed in Escherichia coli BL21(DE3) using penicillin G as substrate by cuvette assay.
Experiment [4] can be described thus: Competitive inhibition of metallo-beta-lactamase IMP-1 expressed in Escherichia coli BL21(DE3) using penicillin G as substrate by 96-well plate assay.

`Nc1ccc(C(F)(F)F)cc1N`: the figures for the pKi in experiment [1] and in experiment [2] were 3.37 and 3.00, respectively.
`COC(=O)c1cccc(CN)c1`: the figures for the pKi in experiment [1] and in experiment [2] were 3.39 and 3.05, respectively.
Regarding `OCc1ccc(-n2ccnc2)cc1`, the pKi in experiment [1] is 3.30; in experiment [2] it was less than 2.70.
On the same counts, the results for `NC(=O)Cc1ccc(F)cc1Cl` are 3.17 and 3.12.
On the same counts, the results for `Nc1cccc(-c2cccnc2)c1` are 3.05 and 3.29.
On the same counts, the results for `Cn1c(S)nnc1C(F)(F)F` are less than 2.70 and 3.01.
For the compound `OCc1ccc(Cn2ccnc2)cc1`, the results for the pKi in experiment [1] and in experiment [2] were 3.10 and less than 2.70, respectively.
On the same counts, the results for `Nc1cccc(Cn2ccnc2)c1` are 3.11 and 2.79.
For the compound `Nc1ccc(Cn2ccnc2)cc1`, the pKi in experiment [1] was 2.93; in experiment [2], 2.82.
Regarding `C[C@H](CS)C(=O)N1CCC[C@H]1C(=O)O` [CAPTOPRIL], the values for the pKi in experiment [1], in experiment [3] and in experiment [4] were less than 2.70, 4.90 and 5.14, respectively.

What is called pKi is the Ki on a negative log10 scale, so that one unit is a factor of ten.

The values above are taken from ChEMBL document CHEMBL1777712, “The identification of new metallo-β-lactamase inhibitor leads from fragment-based screening” (Bioorg Med Chem Lett, 2011).
